Where two headings read alike, the source gives them in different places.
Target: T1, hCB1 (Homo sapiens, UniProt P21554)
T1 construct: made in house; host or cells: Sf9 insect cells (baculovirus), P2 membranes
Assay: Agonist-induced GTP binding (GTPγ35S) assay at CB1, Example 8
Format: biochemical
Conditions: read-out: IC50
In short: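 Antagonism read as inhibition of 1 nM CP55,940-stimulated GTPγ35S ([…]) binding, compounds at 10^−10 to 10^−5 M. Baculovirus-infected Sf9 membranes bearing hCB1 plus G-protein subunits, 60 min room-temperature incubation with 5 μM GDP. Filtration and scintillation counting; data as percent over basal.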

[1] = Table II, IC50 at CB1, GTP binding with 1 nM CP55,940
[2] = IC50 at CB1, determined as described in Example 8

T1 sequence (P21554 whole entry): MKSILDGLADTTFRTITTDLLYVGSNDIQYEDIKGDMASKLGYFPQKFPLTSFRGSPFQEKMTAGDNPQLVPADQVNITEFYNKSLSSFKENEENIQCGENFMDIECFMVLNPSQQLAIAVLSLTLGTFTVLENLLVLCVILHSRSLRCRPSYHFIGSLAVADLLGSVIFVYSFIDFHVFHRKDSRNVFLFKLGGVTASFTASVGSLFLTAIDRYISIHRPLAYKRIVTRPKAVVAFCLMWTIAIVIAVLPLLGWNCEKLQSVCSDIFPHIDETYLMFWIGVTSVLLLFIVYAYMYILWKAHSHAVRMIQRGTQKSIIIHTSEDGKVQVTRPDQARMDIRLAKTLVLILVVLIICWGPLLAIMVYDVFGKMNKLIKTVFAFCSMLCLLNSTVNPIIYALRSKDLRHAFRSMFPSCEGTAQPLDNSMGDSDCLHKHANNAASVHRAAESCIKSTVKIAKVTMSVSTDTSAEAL

## CC(=O)c1cccc(NC(=O)Nc2cccc(OC(F)F)c2)c1 [Compound 285, N-(3-acetylphenyl)-N′-[3-(difluoromethoxy)phenyl]urea]
[1]
  IC50: < 2000 nM

## CC(=O)c1ccc(NC(=O)Nc2cccc(OC(F)F)c2)cc1 [Compound 286, N-(4-acetylphenyl)-N′-[3-(difluoromethoxy)phenyl]urea]
[1]
  IC50: < 2000 nM

## N#Cc1ccc(NC(=O)Nc2ccc(OC(F)F)cc2)cc1 [Compound 287, N-(4-cyanophenyl)-N′-[4-(difluoromethoxy)phenyl]urea]
[1]
  IC50: < 2000 nM

## CC(=O)c1ccc(NC(=O)Nc2ccc(OC(F)F)cc2)cc1 [Compound 288, N-(4-acetylphenyl)-N′-[4-(difluoromethoxy)phenyl]urea]
[1]
  IC50: < 2000 nM

## CCc1ccc(NC(=O)Nc2cccc(C)c2)cc1 [Compound 289, N-(4-ethylphenyl)-N′-(3-methylphenyl)urea]
[2]
  IC50: < 2000 nM

## CCc1ccc(NC(=O)Nc2ccc(C)cc2)cc1 [Compound 290, N-(4-ethylphenyl)-N′-(4-methylphenyl)urea]
[2]
  IC50: < 2000 nM

## CCCc1ccc(NC(=O)Nc2ccccc2)cc1 [Compound 291, N-phenyl-N′-(4-propylphenyl)urea]
[2]
  IC50: < 2000 nM

## CCCc1ccc(NC(=O)Nc2cccc(C)c2)cc1 [Compound 292, 1-(3-methylphenyl)-3-(4-propylphenyl)urea]
[2]
  IC50: < 2000 nM

## CCCc1ccc(NC(=O)Nc2ccc(C)cc2)cc1 [Compound 293, N-(4-methylphenyl)-N′-(4-propylphenyl)urea]
[2]
  IC50: < 2000 nM

## CCCCc1ccc(NC(=O)Nc2ccccc2)cc1 [Compound 294, N-(4-butylphenyl)-N′-phenylurea]
[2]
  IC50: < 2000 nM

## CCCCc1ccc(NC(=O)Nc2ccc(C)cc2)cc1 [Compound 295, N-(4-butylphenyl)-N′-(4-methylphenyl)urea]
[2]
  IC50: < 2000 nM

## Cc1cccc(NC(=O)Nc2cccc(OC(C)C)c2)c1 [Compound 297, 1-(3-isopropoxyphenyl)-3-(3-methylphenyl)urea]
[2]
  IC50: < 2000 nM

## Cc1ccc(NC(=O)Nc2cccc(OC(C)C)c2)cc1 [Compound 298, N-(3-isopropoxyphenyl)-N′-(4-methylphenyl)urea]
[2]
  IC50: < 2000 nM

## Cc1ccc(NC(=O)Nc2ccc(C(C)C)cc2)cc1 [Compound 300, 1-(4-isopropylphenyl)-3-(4-methylphenyl)urea]
[2]
  IC50: < 2000 nM

## CCOc1ccc(NC(=O)Nc2cccc(C)c2)cc1 [Compound 302, 1-(4-ethoxyphenyl)-3-(3-methylphenyl)urea]
[2]
  IC50: < 2000 nM

## CCCOc1ccc(NC(=O)Nc2ccccc2)cc1 [Compound 303, N-phenyl-N′-(4-propoxyphenyl)urea]
[2]
  IC50: < 2000 nM

## CCCOc1ccc(NC(=O)Nc2cccc(C)c2)cc1 [Compound 304, 1-(3-methylphenyl)-3-(4-propoxyphenyl)urea]
[2]
  IC50: < 2000 nM

## O=C(Nc1ccccc1)Nc1ccc(OC(F)F)cc1 [Compound 306, N-[4-(difluoromethoxy)phenyl]-N′-phenylurea]
[2]
  IC50: < 2000 nM

## Cc1cccc(NC(=O)Nc2ccc(OC(F)F)cc2)c1 [Compound 307, N-[4-(difluoromethoxy)phenyl]-N′-(3-methylphenyl)urea]
[2]
  IC50: < 2000 nM

## Cc1ccc(NC(=O)Nc2ccc(OC(F)F)cc2)cc1 [Compound 308, N-[4-(difluoromethoxy)phenyl]-N′-(4-methylphenyl)urea]
[2]
  IC50: < 2000 nM

## Cc1ccc(NC(=O)Nc2ccc(C)c(F)c2)cc1 [Compound 312, 1-(3-fluoro-4-methylphenyl)-3-(4-methylphenyl)urea]
[2]
  IC50: < 2000 nM

## Cc1ccc(NC(=O)Nc2ccc(Cl)cc2)cc1 [Compound 314, N-(4-chlorophenyl)-N′-(4-methylphenyl)urea]
[2]
  IC50: < 2000 nM

## O=C(Nc1ccccc1)Nc1ccc2c(c1)CCC2 [Compound 316, 1-(2,3-dihydro-1H-inden-5-yl)-3-phenylurea]
[2]
  IC50: < 2000 nM

## Cc1cccc(NC(=O)Nc2ccc(N3CCOCC3)c(Cl)c2)c1 [Compound 318, 1-(3-chloro-4-morpholin-4-ylphenyl)-3-(3-methylphenyl)urea]
[2]
  IC50: < 2000 nM

## Cc1cccc(NC(=O)Nc2ccc(-n3cnc(Cl)c3Cl)cc2)c1 [Compound 319, 1-[4-(4,5-dichloro-1H-imidazol-1-yl)phenyl]-3-(3-methylphenyl)urea]
[2]
  IC50: < 2000 nM

## Cc1ccc(NC(=O)Nc2ccc(-n3cnc(Cl)c3Cl)cc2)cc1 [Compound 320, 1-[4-(4,5-dichloro-1H-imidazol-1-yl)phenyl]-3-(4-methylphenyl)urea]
[2]
  IC50: < 2000 nM

## O=C(Nc1ccccc1)Nc1ccc(N2CCCCC2)cc1 [Compound 321, 1-phenyl-3-(4-piperidin-1-ylphenyl)urea]
[2]
  IC50: < 2000 nM

## Cc1ccc(NC(=O)Nc2ccc(N3CCCCC3)cc2)cc1 [Compound 322, 1-(4-methylphenyl)-3-(4-piperidin-1-ylphenyl)urea]
[2]
  IC50: < 2000 nM

## Cc1ccc2nc(NC(=O)Nc3ccccc3)sc2c1 [Compound 323, 1-(6-methyl-1,3-benzothiazol-2-yl)-3-phenylurea]
[2]
  IC50: < 2000 nM

## CCc1cccc(NC(=O)Nc2ccc(C)cc2)c1 [Compound 324, 1-(3-ethylphenyl)-3-(4-methylphenyl)urea]
[2]
  IC50: < 2000 nM

## CCc1ccc(NC(=O)Nc2ccc(F)cc2)cc1 [Compound 325, 1-(4-ethylphenyl)-3-(4-fluorophenyl)urea]
[2]
  IC50: < 2000 nM

## CC(C)c1ccc(NC(=O)Nc2ccc(F)cc2)cc1 [Compound 326, 1-(4-fluorophenyl)-3-(4-isopropylphenyl)urea]
[2]
  IC50: < 2000 nM

## CCCc1ccc(NC(=O)Nc2cccc(F)c2)cc1 [Compound 327, 1-(3-fluorophenyl)-3-(4-propylphenyl)urea]
[2]
  IC50: < 2000 nM

## CCCc1ccc(NC(=O)Nc2ccc(F)cc2)cc1 [Compound 328, 1-(4-fluorophenyl)-3-(4-propylphenyl)urea]
[2]
  IC50: < 2000 nM

## CCc1ccc(NC(=O)Nc2cccc(CC)c2)cc1 [Compound 329, 1-(3-ethylphenyl)-3-(4-ethylphenyl)urea]
[2]
  IC50: < 2000 nM

## CCc1ccc(NC(=O)Nc2cccc(Cl)c2)cc1 [Compound 330, 1-(3-chlorophenyl)-3-(4-ethylphenyl)urea]
[2]
  IC50: < 2000 nM

## CCc1ccc(NC(=O)Nc2ccc(C(C)C)cc2)cc1 [Compound 332, 1-(4-ethylphenyl)-3-(4-isopropylphenyl)urea]
[2]
  IC50: < 2000 nM

## CC(C)c1ccc(NC(=O)Nc2ccc(Cl)cc2)cc1 [Compound 333, 1-(4-chlorophenyl)-3-(4-isopropylphenyl)urea]
[2]
  IC50: < 2000 nM

## CCCc1ccc(NC(=O)Nc2cccc(CC)c2)cc1 [Compound 334, 1-(3-ethylphenyl)-3-(4-propylphenyl)urea]
[2]
  IC50: < 2000 nM

## CCCc1ccc(NC(=O)Nc2cccc(Cl)c2)cc1 [Compound 335, 1-(3-chlorophenyl)-3-(4-propylphenyl)urea]
[2]
  IC50: < 2000 nM

## CCCc1ccc(NC(=O)Nc2ccc(Cl)cc2)cc1 [Compound 336, 1-(4-chlorophenyl)-3-(4-propylphenyl)urea]
[2]
  IC50: < 2000 nM

## CC(=O)c1ccc(NC(=O)Nc2ccc(C)cc2)cc1 [Compound 338, 1-(4-acetylphenyl)-3-(4-methylphenyl)urea]
[2]
  IC50: < 2000 nM

## CC(=O)c1ccc(NC(=O)Nc2cccc(F)c2)cc1 [Compound 339, 1-(4-acetylphenyl)-3-(3-fluorophenyl)urea]
[2]
  IC50: < 2000 nM

## CC(=O)c1ccc(NC(=O)Nc2ccc(F)cc2)cc1 [Compound 340, 1-(4-acetylphenyl)-3-(4-fluorophenyl)urea]
[2]
  IC50: < 2000 nM

## CCc1cccc(NC(=O)Nc2ccc(C(C)=O)cc2)c1 [Compound 341, 1-(4-acetylphenyl)-3-(3-ethylphenyl)urea]
[2]
  IC50: < 2000 nM

## CC(=O)c1ccc(NC(=O)Nc2cccc(Cl)c2)cc1 [Compound 342, 1-(4-acetylphenyl)-3-(3-chlorophenyl)urea]
[2]
  IC50: < 2000 nM

## CC(=O)c1ccc(NC(=O)Nc2ccc(Cl)cc2)cc1 [Compound 344, 1-(4-acetylphenyl)-3-(4-chlorophenyl)urea]
[2]
  IC50: < 2000 nM

## CC(C)c1ccc(NC(=O)Nc2ccc(C#N)cc2)cc1 [Compound 345, 1-(4-cyanophenyl)-3-(4-isopropylphenyl)urea]
[2]
  IC50: < 2000 nM

## CC(C)c1ccc(NC(=O)Nc2cccc(C#N)c2)cc1 [Compound 346, 1-(3-cyanophenyl)-3-(4-isopropylphenyl)urea]
[2]
  IC50: < 2000 nM

## CC(=O)c1cccc(NC(=O)Nc2ccc(C(C)C)cc2)c1 [Compound 347, 1-(3-acetylphenyl)-3-(4-isopropylphenyl)urea]
[2]
  IC50: < 2000 nM

## CC(=O)c1ccc(NC(=O)Nc2ccc(C(C)C)cc2)cc1 [Compound 348, 1-(4-acetylphenyl)-3-(4-isopropylphenyl)urea]
[2]
  IC50: < 2000 nM

## CCCc1ccc(NC(=O)Nc2ccc(C#N)cc2)cc1 [Compound 349, 1-(4-cyanophenyl)-3-(4-propylphenyl)urea]
[2]
  IC50: < 2000 nM

## CCCc1ccc(NC(=O)Nc2cccc(C#N)c2)cc1 [Compound 350, 1-(3-cyanophenyl)-3-(4-propylphenyl)urea]
[2]
  IC50: < 2000 nM

## CCCc1ccc(NC(=O)Nc2cccc(C(C)=O)c2)cc1 [Compound 351, 1-(3-acetylphenyl)-3-(4-propylphenyl)urea]
[2]
  IC50: < 2000 nM

## CCCc1ccc(NC(=O)Nc2ccc(C(C)=O)cc2)cc1 [Compound 352, 1-(4-acetylphenyl)-3-(4-propylphenyl)urea]
[2]
  IC50: < 2000 nM

## CC(=O)c1ccc(NC(=O)Nc2cccc(Br)c2)cc1 [Compound 353, 1-(4-acetylphenyl)-3-(3-bromophenyl)urea]
[2]
  IC50: < 2000 nM

## CCOc1cccc(NC(=O)Nc2ccc(C)cc2)c1 [Compound 354, 1-(3-ethoxyphenyl)-3-(4-methylphenyl)urea]
[2]
  IC50: < 2000 nM

## CCOc1cccc(NC(=O)Nc2cccc(F)c2)c1 [Compound 355, 1-(3-ethoxyphenyl)-3-(3-fluorophenyl)urea]
[2]
  IC50: < 2000 nM

## CCOc1cccc(NC(=O)Nc2ccc(F)cc2)c1 [Compound 356, 1-(3-ethoxyphenyl)-3-(4-fluorophenyl)urea]
[2]
  IC50: < 2000 nM

— patent US20090239841A1, “Diaryl Ureas as CB1 Antagonists” (priority 2004, published 2009)
